From US10975071B2, “Inhibitors of KRAS G12C mutant proteins” (Araxes Pharma LLC, priority 2015, dated 2021)

Biological target: T1, KRAS G12C 1-169, his-tagged protein, GDP-loaded (Homo sapiens, UniProt P01116, G12C)
T1 construct: KRAS G12C 1-169, his-tagged protein, GDP-loaded
Test: Biochemical assay: covalent binding to KRAS G12C measured by mass spectrometry
Protocol: Test compounds are prepared as 10 mM stock solutions in DMSO (Fisher cat# BP-231-100). KRAS G12C 1-169, his-tagged protein, GDP-loaded is diluted to […] in buffer (20 mM Hepes, 150 mM NaCl, 1 mM MgCl2). Compounds are tested for activity as follows:
Compounds are diluted to 50× final test concentration in DMSO in 96-well storage plates. Compound stock solutions are vortexed before use and observed carefully for any sign of precipitation. Dilutions are as follow: • For 100 μM final compound concentration, compounds are diluted to 5000 μM (5 μl 10 mM compound stock +5 μl DMSO and mixed well by pipetting. • For 30 μM final compound concentration, compounds are diluted to 1500 μM (3 μl 10 mM compound stock +17 μl DMSO) and mixed well by pipetting. • For 10 μM final compound concentration, compounds are diluted to 500 μM (2 μl 10 mM compound stock +38 μl DMSO) and mixed well by pipetting. 49 μl of the stock protein solution is added to each well of a 96-well PCR plate (Fisher cat#1423027). […] of the diluted 50× compounds are added to appropriate wells in the PCR plate using 12-channel pipettor. Reactions are mixed carefully and thoroughly by pipetting up/down with a 200 μl multi-channel pipettor. The plate is sealed well with aluminum plate seal, and stored in drawer at room temperature for 24 hrs. 5 μl of 2% formic acid (Fisher cat# Al 117) in DI H2O is then added to each well followed by mixing with a pipette. The plate is then resealed with aluminum seal and stored on dry ice until analyzed as described below.
The above described assays are analyzed by mass spectrometry according to the following procedure:
The MS instrument is set to positive polarity, 2 GHz resolution, and low mass (1700) mode and allowed to equilibrate for 30 minutes. The instrument is then calibrated, switched to acquisition mode and the appropriate method loaded.
After another 30 minute equilibration time, a blank batch (i.e., buffer) is run to ensure equipment is operating properly. The samples are thawed at 37° C. for 10 minutes, briefly centrifuged, and transfer to the bench top. Wells Al and H12 are spiked with 1 uL 500 uM internal standard peptide, and the plates centrifuged at 2000×g for 5 minutes. The method is then run and masses of each individual well recorded.
The masses (for which integration data is desired) for each well are pasted into the platemap and exported from the analysis. Masses for the internal standards are exported as well. The data at 50 ppm is extracted for the +19 charge state, and identity of well Al is assigned using the internal standard spike and integrated. Peak data is exported as a TOF list and the above steps are repeated individually, for the +20, 21, 22, 23, 24, and 25 charge states.

T1 sequence (P01116 1-169 isoform P01116-2 G12C): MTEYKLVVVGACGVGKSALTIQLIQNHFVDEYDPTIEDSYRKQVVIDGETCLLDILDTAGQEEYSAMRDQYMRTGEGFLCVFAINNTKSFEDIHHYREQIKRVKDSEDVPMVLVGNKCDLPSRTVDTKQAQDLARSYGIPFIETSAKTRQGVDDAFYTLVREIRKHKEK

Row | SMILES | Binding %
1 | C=CC(=O)N1CCN(c2cnc3cc(-c4c(C)ccc5[nH]ncc45)c(Cl)cn23)CC1 [Compound 1, 1-(4-(6-chloro-7-(5-methyl-1H-indazol-4-yl)imidazo[1,2-a]pyridin-3-yl)piperazin-1-yl)prop-2-en-1-one] | ++ (++ indicates binding activity greater than 5% and up to 50%)
2 | C=CC(=O)N1CCN(c2cnc3c(F)c(-c4c(O)cccc4F)c(Cl)cn23)CC1 [Compound 20, 1-(4-(6-chloro-8-fluoro-7-(2-fluoro-6-hydroxyphenyl)imidazo[1,2-a]pyridin-3-yl)piperazin-1-yl)prop-2-en-1-one] | +++ (+++ indicates binding activity 50% or greater)
3 | C=CC(=O)N1CCN(c2c(NC(C)=O)nc3cc(-c4c(F)cccc4OC)c(Cl)cn23)CC1 [Compound 21, N-(3-(4-acryloylpiperazin-1-yl)-6-chloro-7-(2-fluoro-6-methoxyphenyl)imidazo[1,2-a]pyridin-2-yl)acetamide] | + (+ indicates binding activity up to 5)
4 | C=CC(=O)N1CCN(c2c(NC(C)=O)nc3cc(-c4c(O)cccc4F)c(C)cn23)CC1 [Compound 24, N-(3-(40 acryloylpiperazin-1-yl)-7-(2-fluoro-6-hydroxyphenyl)-6-methylimidazo[1,2-a]pyridin-2-yl)acetamide] | + (+ indicates binding activity up to 5)
5 | C=CC(=O)N1CCN(C2=NCC(=O)Nc3c2cc(Cl)c(-c2c(O)cccc2F)c3F)CC1 [Compound 25, 5-(4-acryloylpiperazin-1-yl)-7-chloro-9-fluoro-8-(2-fluoro-6-hydroxyphenyl)-1,3-dihydro-2H-benzo[e][1,4] diazepin-2-one] | + (+ indicates binding activity up to 5)
6 | C=CC(=O)N1CCN(C2=COC3C=C(c4c(O)cccc4F)C(Cl)=CC23)CC1 (stereo not drawn) [Compound 26, 1-(4-(5-chloro-6-(2-fluoro-6-hydroxyphenyl)-3a,7a-dihydrobenzofuran-3-yl)piperazin-1-yl)prop-2-en-1-one] | +++ (+++ indicates binding activity 50% or greater)
